According to patent US9695155B2, “Herbicidal substituted pyrimidinyloxy benzene compounds” (E. I. DU PONT DE NEMOURS AND COMPANY, priority 2013, dated 2017):

What was measured:
[1] = test system: pigweed; assay: Test A preemergence; type: in vivo, Amaranthus retroflexus; details: for Pigweed plant response rating (0 to 100 scale): 125 g ai/ha
Outline: (§1)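 Visual injury scored 0–100 (100 = complete control) against untreated controls about 10 days after treatment in a greenhouse. Test chemicals, formulated with surfactant in non-phytotoxic solvent, were sprayed on soil preemergence or on 2-10 cm, one- to two-leaf plants postemergence.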

[2] = test system: giant foxtail; assay: Test A preemergence; type: in vivo, Setaria faberii; details: for Foxtail, Giant plant response rating (0 to 100 scale): 125 g ai/ha
Outline: as §1

[3] = test system: wheat; assay: Test A preemergence; type: in vivo, Triticum aestivum; details: for Wheat plant response rating (0 to 100 scale): 125 g ai/ha
Outline: as §1

[4] = test system: rice; assay: Test B flooded paddy test; type: in vivo, Oryza sativa; details: Flood, 250 g ai/ha; 0 to 100 scale where 0 is no effect and 100 is complete control
Outline: (§2)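 Scores from 0 (no effect) to 100 (complete control) are visual comparisons with controls, taken 13 to 15 days after compound was applied into floodwater 3 cm deep around 2-leaf plants.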

[5] = test system: barnyardgrass; assay: Test B flooded paddy test; type: in vivo, Echinochloa crus-galli; details: Flood, 250 g ai/ha; 0 to 100 scale where 0 is no effect and 100 is complete control
Outline: as §2

[6] = test system: sedge, umbrella; assay: Test B flooded paddy test; type: in vivo, Cyperus difformis; details: Flood, 250 g ai/ha; 0 to 100 scale where 0 is no effect and 100 is complete control
Outline: as §2

[7] = test system: barnyardgrass; assay: Test A postemergence; type: in vivo, Echinochloa crus-galli
Outline: as §1

[8] = test system: corn; assay: Test A postemergence; type: in vivo, Zea mays
Outline: as §1

[9] = test system: Heteranthera limosa; assay: Test B flooded paddy test; type: in vivo; details: Flood, 250 g ai/ha; 0 to 100 scale where 0 is no effect and 100 is complete control
Outline: as §2

[10] = test system: velvetleaf; assay: Test A postemergence; type: in vivo, Abutilon theophrasti
Outline: as §1

[11] = test system: large (Lg) crabgrass; assay: Test A preemergence; type: in vivo, Digitaria sanguinalis; details: for Crabgrass, Large plant response rating (0 to 100 scale): 125 g ai/ha
Outline: as §1

[12] = test system: giant foxtail; assay: Test A postemergence; type: in vivo, Setaria faberii
Outline: as §1

[13] = test system: morningglory; assay: Test A postemergence; type: in vivo, Ipomoea spp.
Outline: as §1

[14] = test system: pigweed; assay: Test A postemergence; type: in vivo, Amaranthus retroflexus
Outline: as §1

[15] = test system: corn; assay: Test A preemergence; type: in vivo, Zea mays; details: for Corn plant response rating (0 to 100 scale): 125 g ai/ha
Outline: as §1

[16] = test system: morningglory; assay: Test A preemergence; type: in vivo, Ipomoea spp.; details: for Morningglory plant response rating (0 to 100 scale): 125 g ai/ha
Outline: as §1

[17] = test system: barnyardgrass; assay: Test A preemergence; type: in vivo, Echinochloa crus-galli; details: for Barnyardgrass plant response rating (0 to 100 scale, 0 is no effect, 100 is complete control): 125 g ai/ha
Outline: as §1

[18] = test system: wheat; assay: Test A postemergence; type: in vivo, Triticum aestivum
Outline: as §1

[19] = test system: large (Lg) crabgrass; assay: Test A postemergence; type: in vivo, Digitaria sanguinalis
Outline: as §1

[20] = test system: velvetleaf; assay: Test A preemergence; type: in vivo, Abutilon theophrasti; details: for Velvetleaf plant response rating (0 to 100 scale): 125 g ai/ha
Outline: as §1

[21] = 1000 g ai/ha, 0 to 100 scale, 0 no effect, 100 complete control, approx. 10 days
[22] = 1000 g ai/ha, 0 to 100 scale, 0 no effect, 100 complete control
[23] = 500 g ai/ha, 0 to 100 scale where 0 is no effect and 100 is complete control
[24] = 125 g ai/ha, 0 to 100 scale, 0 no effect, 100 complete control

C[Si](C)(C)c1cn(-c2ccccc2Oc2ncc(Cl)cn2)nn1 [Compound 297]
Pigweed plant response rating [1, 21]: 70
Foxtail, Giant plant response rating [2, 21]: 80
Wheat plant response rating [3, 21]: 0
Plant response rating, Rice [4]: 0
Plant response rating, Barnyardgrass [5]: 0
Plant response rating, Sedge, Umbrella [6]: 0
Plant response rating, Barnyardgrass [7, 22]: 10
Plant response rating, Corn [8, 22]: 0
Plant response rating, Ducksalad [9]: 0
Plant response rating, Velvetleaf [10, 22]: 60
Crabgrass, Large plant response rating [11, 21]: 90
Plant response rating, Foxtail, Giant [12, 22]: 10
Plant response rating, Morningglory [13, 22]: 30
Plant response rating, Pigweed [14, 22]: 70
Corn plant response rating [15, 21]: 0
Morningglory plant response rating [16, 21]: 0
Barnyardgrass plant response rating [17, 21]: 10
Plant response rating, Wheat [18, 22]: 0
Plant response rating, Crabgrass, Large [19, 22]: 30
Velvetleaf plant response rating [20, 21]: 50

CCOC(=O)c1cnn(-c2c(C#N)cccc2Oc2ncc(Cl)cn2)c1 [Compound 301]
Pigweed plant response rating (0 to 100 scale) [1]: 0
Pigweed plant response rating [1, 23]: 0
Foxtail, Giant plant response rating (0 to 100 scale) [2]: 0
Foxtail, Giant plant response rating [2, 23]: 0
Wheat plant response rating (0 to 100 scale) [3]: 0
Wheat plant response rating [3, 23]: 0
Plant response rating, Rice [4]: 0
Plant response rating, Barnyardgrass [5]: 0
Plant response rating, Sedge, Umbrella [6]: 0
Plant response rating, Barnyardgrass [7, 24]: 0
Plant response rating, Barnyardgrass [7, 23]: 0
Plant response rating, Corn [8, 24]: 0
Plant response rating, Corn [8, 23]: 0
Plant response rating, Ducksalad [9]: 0
Plant response rating, Velvetleaf [10, 24]: 0
Plant response rating, Velvetleaf [10, 23]: 0
Crabgrass, Large plant response rating (0 to 100 scale) [11]: 0
Crabgrass, Large plant response rating [11, 23]: 0
Plant response rating, Foxtail, Giant [12, 24]: 0
Plant response rating, Foxtail, Giant [12, 23]: 0
Plant response rating, Morningglory [13, 24]: 0
Plant response rating, Morningglory [13, 23]: 0
Plant response rating, Pigweed [14, 24]: 0
Plant response rating, Pigweed [14, 23]: 30
Corn plant response rating (0 to 100 scale) [15]: 0
Corn plant response rating [15, 23]: 0
Morningglory plant response rating (0 to 100 scale) [16]: 0
Morningglory plant response rating [16, 23]: 0
Barnyardgrass plant response rating (0 to 100 scale, 0 is no effect, 100 is complete control) [17]: 0
Barnyardgrass plant response rating [17, 23]: 0
Plant response rating, Wheat [18, 24]: 0
Plant response rating, Wheat [18, 23]: 0
Plant response rating, Crabgrass, Large [19, 24]: 0
Plant response rating, Crabgrass, Large [19, 23]: 0
Velvetleaf plant response rating (0 to 100 scale) [20]: 0
Velvetleaf plant response rating [20, 23]: 0

N#Cc1cccc(Oc2ncc(Cl)cn2)c1-n1cc([N+](=O)[O-])cn1 [Compound 304]
Pigweed plant response rating (0 to 100 scale) [1]: 0
Pigweed plant response rating [1, 23]: 0
Foxtail, Giant plant response rating (0 to 100 scale) [2]: 0
Foxtail, Giant plant response rating [2, 23]: 0
Wheat plant response rating (0 to 100 scale) [3]: 0
Wheat plant response rating [3, 23]: 0
Plant response rating, Rice [4]: 0
Plant response rating, Barnyardgrass [5]: 0
Plant response rating, Sedge, Umbrella [6]: 0
Plant response rating, Barnyardgrass [7, 24]: 0
Plant response rating, Barnyardgrass [7, 23]: 0
Plant response rating, Corn [8, 24]: 0
Plant response rating, Corn [8, 23]: 0
Plant response rating, Ducksalad [9]: 0
Plant response rating, Velvetleaf [10, 24]: 0
Plant response rating, Velvetleaf [10, 23]: 0
Crabgrass, Large plant response rating (0 to 100 scale) [11]: 0
Crabgrass, Large plant response rating [11, 23]: 10
Plant response rating, Foxtail, Giant [12, 24]: 0
Plant response rating, Foxtail, Giant [12, 23]: 0
Plant response rating, Morningglory [13, 24]: 0
Plant response rating, Morningglory [13, 23]: 0
Plant response rating, Pigweed [14, 24]: 30
Plant response rating, Pigweed [14, 23]: 50
Corn plant response rating (0 to 100 scale) [15]: 0
Corn plant response rating [15, 23]: 0
Morningglory plant response rating (0 to 100 scale) [16]: 0
Morningglory plant response rating [16, 23]: 0
Barnyardgrass plant response rating (0 to 100 scale, 0 is no effect, 100 is complete control) [17]: 0
Barnyardgrass plant response rating [17, 23]: 0
Plant response rating, Wheat [18, 24]: 0
Plant response rating, Wheat [18, 23]: 0
Plant response rating, Crabgrass, Large [19, 24]: 0
Plant response rating, Crabgrass, Large [19, 23]: 0
Velvetleaf plant response rating (0 to 100 scale) [20]: 0
Velvetleaf plant response rating [20, 23]: 0
